In US20240166681A1, “3'3' CYCLIC DINUCLEOTIDES CONTAINING ISONUCLEOTIDIC UNITS” (INSTITUTE OF ORGANIC CHEMISTRY AND BIOCHEMISTRY AS CR, V. …, priority 2021, published 2024):
pEC50: −log10 of the molar value. Read-outs that look alike come from different tables or passages of the source.

How the values were obtained:
WT STING = WT STING (Homo sapiens, UniProt Q86WV6, H232R); assay: 293T WT STING standard reporter assay; type: cell-based; parameters: host or cells: 293T (ATCC CRL-3216), stably transfected; details: 293T wtSTING-FL cells, no digitonin, 7 h incubation, luciferase reporter
Protocol: After 5 minutes incubation at room temperature (RT), 250 μL of the mixture was added dropwise to the cells in one well. Cells were incubated 36 hours at 37° C. with 5% CO2, and then detached with 0.05% Trypsin and 0.22 g/L EDTA (both cat. #L0941, Biowest, Riverside, USA).
Transfected cells were seeded onto poly-D-lysine coated six well plates at density 50,000 cells per 1 cm^2 in DMEM medium with high glucose containing 10% heat inactivated FBS, 30 μg/mL blasticidin (cat. #ant-b1-05, InvivoGen, San Diego, USA), 0.06 mg/ml Penicillin G and 0.1 mg/ml Streptomycin Sulfate (both cat. #. L0018, Biowest, Riverside, USA). The medium was replenished every 3-4 days until visible colonies of cells resistant to blasticidin were formed.
Blasticidin resistant cells stably expressing WT STING were further transfected with […] plasmid following the same procedure as described above. […] Homogeneous culture of stably double transfected cells was prepared by limiting dilution of cells in 96 well plates and wells with cells were selected that originated from a single cell.
The medium was removed next day and three-fold serial dilutions of compounds in 100 μl medium were added to the cells. The plates with cells were incubated for 7 hours at 37° C. with 5% CO2. After 50 μl of the medium was removed, 30 μl of ONE-Glo™ Luciferase Assay System reagent (cat. #E6120, Promega, Madison, USA) was added to each well and luminescence was read on Synergy H1 (Biotek, Winooski, USA). […] (cat. #tlrl-nacga23), and 2′2′-cGAMP (cat. #tlrl-nacga22) were purchased from Invivogen (San Diego, USA).

[1] = test system: peripheral blood mononuclear cell (PBMC); assay: Peripheral blood mononuclear cell assay (cytokine levels); type: cell-based; details: 1 h with compound, wash, 15 h, average of at least two donors
Protocol: Selected compounds were tested in an in vitro peripheral blood mononuclear cell (PBMC) assay. Freshly isolated PBMCs were seeded into U-shaped shaped 96-well plates at desity 500,000 cells per well in 50 μl of RPMI 1640 medium supplemented with 10% heat inactivated FBS. Serially dilluted tested compounds were added to wells in 50 μl of cultivation medium and cell were incubated with compounds for 1 h at 37° C. with 5% CO2. Plates with cells were then spun 500 g for 5 minutes and medium was removed. Cells were washed twice with the cell culture medium by the use of centrifugation and gently resuspended in 100 μl medium without compounds. After 15 hour incubation at 37° C. with 5% CO2, the cell culture medium was collected and the levels of interferon-alpha (INF-α), interferon-gamma (INF-γ) and tumor necrosis factor-alpha (TNF-α) were determined with ProcartaPlex Assays (ThermoFisher, Waltham, USA) and MAGPIX System (Merck KGaA, Darmstadt, Germany). GraphPad Prism (San Diego, CA, USA) was used to calculate the 50% effective concentration (EC50) from a 6-point dose-response curve. Values reported are an average of runs from at least two donors.

Chain of WT STING (Q86WV6 whole entry H232R): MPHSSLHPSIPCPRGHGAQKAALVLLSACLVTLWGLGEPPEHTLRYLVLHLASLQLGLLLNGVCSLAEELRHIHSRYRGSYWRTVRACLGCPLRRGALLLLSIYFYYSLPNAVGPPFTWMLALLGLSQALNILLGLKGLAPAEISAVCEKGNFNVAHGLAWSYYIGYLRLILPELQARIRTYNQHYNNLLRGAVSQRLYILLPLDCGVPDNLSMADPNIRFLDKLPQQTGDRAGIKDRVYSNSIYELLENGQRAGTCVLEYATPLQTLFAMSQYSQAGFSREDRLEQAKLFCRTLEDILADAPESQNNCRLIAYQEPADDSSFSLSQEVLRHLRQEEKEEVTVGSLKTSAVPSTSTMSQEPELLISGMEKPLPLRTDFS

Row | SMILES | pEC50 (WT STING) | pEC50 ([1]; read-out: PBMC EC50 IFN-α) | pEC50 ([1]; read-out: PBMC EC50 IFN-γ) | pEC50 ([1]; read-out: PBMC EC50 TNF-α)
1 | CC(C)(C)C(=O)OCOP1(=O)OC[C@H]2OC[C@@H](n3cnc4c(N)ncnc43)[C@@H]2OP(=O)(OCOC(=O)C(C)(C)C)OC[C@H]2O[C@@H](n3cnc4c(N)ncnc43)[C@H](F)[C@@H]2O1 (single isomer, unassigned) [Compound 36a] | 7.06 | – | – | –
2 | CC(C)(C)C(=O)OCOP1(=O)OC[C@H]2OC[C@@H](n3cnc4c(N)ncnc43)[C@@H]2OP(=O)(OCOC(=O)C(C)(C)C)OC[C@H]2O[C@@H](n3cnc4c(N)ncnc43)[C@H](F)[C@@H]2O1 (single isomer, unassigned) [Compound 36b] | 7.11 | – | – | –
3 | CC(C)(C)C(=O)OCOP1(=O)OC[C@H]2OC[C@@H](n3cnc4c(N)ncnc43)[C@@H]2OP(=O)(OCOC(=O)C(C)(C)C)OC[C@H]2O[C@@H](n3cnc4c(N)ncnc43)[C@H](F)[C@@H]2O1 (single isomer, unassigned) [Compound 36c] | 7.28 | – | – | –
4 | CC(C)(C)C(=O)OCOP1(=O)OC[C@H]2OC[C@@H](n3cnc4c(N)ncnc43)[C@@H]2OP(=O)(OCOC(=O)C(C)(C)C)OC[C@H]2O[C@@H](n3cnc4c(N)ncnc43)[C@H](F)[C@@H]2O1 (single isomer, unassigned) [Compound 36d] | 7.55 | 6.74 | 6.94 | 6.49
5 | CC1(C(=O)OCOP2(=O)OC[C@H]3OC[C@@H](n4cnc5c(N)ncnc54)[C@@H]3OP(=O)(OCOC(=O)C3(C)CCCCC3)OC[C@H]3O[C@@H](n4cnc5c(N)ncnc54)[C@H](F)[C@@H]3O2)CCCCC1 (single isomer, unassigned) [Compound 56a] | 6.55 | – | – | –
6 | CC1(C(=O)OCOP2(=O)OC[C@H]3OC[C@@H](n4cnc5c(N)ncnc54)[C@@H]3OP(=O)(OCOC(=O)C3(C)CCCCC3)OC[C@H]3O[C@@H](n4cnc5c(N)ncnc54)[C@H](F)[C@@H]3O2)CCCCC1 (single isomer, unassigned) [Compound 56b] | 7.36 | – | – | –
7 | CC1(C(=O)OCOP2(=O)OC[C@H]3OC[C@@H](n4cnc5c(N)ncnc54)[C@@H]3OP(=O)(OCOC(=O)C3(C)CCCCC3)OC[C@H]3O[C@@H](n4cnc5c(N)ncnc54)[C@H](F)[C@@H]3O2)CCCCC1 (single isomer, unassigned) [Compound 56c] | 7.68 | – | – | –
8 | CC1(C(=O)OCOP2(=O)OC[C@H]3OC[C@@H](n4cnc5c(N)ncnc54)[C@@H]3OP(=O)(OCOC(=O)C3(C)CCCCC3)OC[C@H]3O[C@@H](n4cnc5c(N)ncnc54)[C@H](F)[C@@H]3O2)CCCCC1 (single isomer, unassigned) [Compound 56d] | 7.39 | 6.49 | 7.32 | 6.80
9 | CCC(C)(C)C(=O)OCOP1(=O)OC[C@H]2OC[C@@H](n3cnc4c(N)ncnc43)[C@@H]2OP(=O)(OCOC(=O)C(C)(C)CC)OC[C@H]2O[C@@H](n3cnc4c(N)ncnc43)[C@H](F)[C@@H]2O1 (single isomer, unassigned) [Compound 57a] | 7.49 | – | – | –
10 | CCC(C)(C)C(=O)OCOP1(=O)OC[C@H]2OC[C@@H](n3cnc4c(N)ncnc43)[C@@H]2OP(=O)(OCOC(=O)C(C)(C)CC)OC[C@H]2O[C@@H](n3cnc4c(N)ncnc43)[C@H](F)[C@@H]2O1 (single isomer, unassigned) [Compound 57b] | 7.74 | – | – | –
11 | CCC(C)(C)C(=O)OCOP1(=O)OC[C@H]2OC[C@@H](n3cnc4c(N)ncnc43)[C@@H]2OP(=O)(OCOC(=O)C(C)(C)CC)OC[C@H]2O[C@@H](n3cnc4c(N)ncnc43)[C@H](F)[C@@H]2O1 (single isomer, unassigned) [Compound 57c] | 7.89 | – | – | –
12 | CCC(C)(C)C(=O)OCOP1(=O)OC[C@H]2OC[C@@H](n3cnc4c(N)ncnc43)[C@@H]2OP(=O)(OCOC(=O)C(C)(C)CC)OC[C@H]2O[C@@H](n3cnc4c(N)ncnc43)[C@H](F)[C@@H]2O1 (single isomer, unassigned) [Compound 57d] | 7.85 | 6.59 | 7.10 | 6.69
13 | CCCCCCCC(=O)OCOP1(=O)OC[C@H]2OC[C@@H](n3cnc4c(N)ncnc43)[C@@H]2OP(=O)(OCOC(=O)CCCCCCC)OC[C@H]2O[C@@H](n3cnc4c(N)ncnc43)[C@H](F)[C@@H]2O1 (single isomer, unassigned) [Compound 58a] | 8.30 | – | – | –
14 | CCCCCCCC(=O)OCOP1(=O)OC[C@H]2OC[C@@H](n3cnc4c(N)ncnc43)[C@@H]2OP(=O)(OCOC(=O)CCCCCCC)OC[C@H]2O[C@@H](n3cnc4c(N)ncnc43)[C@H](F)[C@@H]2O1 (single isomer, unassigned) [Compound 58b] | 9.00 | – | – | –
15 | CCCCCCCC(=O)OCOP1(=O)OC[C@H]2OC[C@@H](n3cnc4c(N)ncnc43)[C@@H]2OP(=O)(OCOC(=O)CCCCCCC)OC[C@H]2O[C@@H](n3cnc4c(N)ncnc43)[C@H](F)[C@@H]2O1 (single isomer, unassigned) [Compound 58c] | 8.70 | – | – | –
16 | CCCCCCCC(=O)OCOP1(=O)OC[C@H]2OC[C@@H](n3cnc4c(N)ncnc43)[C@@H]2OP(=O)(OCOC(=O)CCCCCCC)OC[C@H]2O[C@@H](n3cnc4c(N)ncnc43)[C@H](F)[C@@H]2O1 (single isomer, unassigned) [Compound 58d] | 8.70 | 7.42 | 7.80 | 7.43
17 | Nc1nc2c(ncn2[C@@H]2O[C@@H]3COP(=O)(O)O[C@@H]4[C@H](O)[C@@H](COP(=O)(O)O[C@@H]2[C@@H]3O)O[C@H]4n2cnc3c(N)ncnc32)c(=O)[nH]1 [2′2′-cGAMP, reference compound] | 4.99 | – | – | –
